Experimental data as given in patent publication US6328728A, “Composition and method for enhancing electrotransport agent delivery” (Alza Corporation, priority 1997, dated 2001).

Columns and labels:
[1] = Measurement of circular dichroism (mean residue ellipticity at 222 nm); assay type: physicochemical; conditions: insulinotropin as agent
From the text: In general, the structure of a polypeptide in an aqueous buffered solution is in constant flux between portions thereof being random coil and alpha-helix configurations. For the polypeptides used in the following examples, the predominant structure is a random coil since the alpha-helix configuration is unstable in the absence of bound surfactant. According to the present invention adding surfactant to an aqueous solution of a polypeptide stabilizes the alpha-helix configuration. Circular dichroism is a measurement of the amount of the alpha-helix configured polypeptide present in the solution. Thus, circular dichroism provides an indirect measurement of the degree of binding of the surfactant to the polypeptide. (See, for example, Epand R. M., Epand R. F., Orlowski R. C., Schuleter R. J., Boni L. T. and Hui S. W., Biochemistry 22, 5074-5084 (1983); Hui, S. W., Epand R. M., Dell K. R., Epand R. F. and Orlowski R. C., Biochimica Biophysica Acta 772, 264-272 (1984); Epand R. M., Epand R. F., and Orlowski R. C., International Journal Peptide Protein Research 25 105-111; Epand R. M., Epand R. F., Orlowski R. C., Seyler J. K. and Colescott R. L., Biochemistry 25, 1964-1968; Epand R. M., Seyler J. K. and Orlowski R. C., European Journal Biochemistry 159, 125-127 (1986); Wiersema P. H., Loeb A. L. and Overbeek, J., Colloid Interface Science 22, 78-99 (1966)).
The surfactant/peptide circular dichroism (CD) spectra were obtained in a 2 mm path-length cell (110-Q-2 Model, AVIV, Lakewood, N.J.) at 32° C. The cell was initially loaded with 0.60 mL of a solution containing about 0.25 mg/mL of the peptide in 10 mM sodium chloroacetate (pH 3.5) or 10 mM sodium borate (pH 9.0). The buffers were selected to minimize the effect of the temperature on the pH of the solution and to minimize light absorption, thereby optimizing the signal-to-noise ratio (SNR). The peptide concentration was determined by spectrophotometry, with log-log correction for light scattering. The surfactant concentration was increased step-wise by titration of concentrated surfactant stock directly into the CD cell, followed by eight inversions of the cell, with the air bubble providing the mixing turbulence. After mixing, the cell was placed into the AVIV 62 CD spectrometer (AVIV, Lakewood, N.J.). In order to approximate temperature and chemical equilibrium, the sample remained in the spectrometer 5 minutes before a reading was taken. The CD spectrum was taken using a band pass of 1 nm, a data interval of 1 nm, and a data averaging time of 10 seconds. The mean residue ellipticity is the ellipticity divided by the path length in cm times the amino acid residue concentration in decimoles/cm^3. See Methods in Enzymology, Vol 130, pp 208-269, Yang et al, "Calculation of Protein Conformation from Circular Dichroism" (1986).
(§1) The measurement procedures described above were conducted on an aqueous solution of the protein insulinotropin, with TWEEN® 20 (MW=1126 g/mol) as the surfactant, with the following modifications. The insulinotropin donor solution concentration was 0.12 mg/mL. One test was run in 10 mM sodium borate at pH 9.0 and another test in 10 mM sodium chloroacetate at pH 3.5.
(§2) Fractional changes (%δ) are defined as the difference between the reading at a given surfactant concentration (Ec) minus the reading at zero surfactant (E0), the quantity divided by the difference between the reading at saturated surfactant concentration (Es) minus the reading at zero surfactant (E0), i. e. %δ=(Ec -E0)/(Es-E0).
The measurement procedures described earlier were conducted on an aqueous solution of insulinotropin as the agent, and TWEEN® 40 (molecular weight 1282 g/mol) as the surfactant with the following changes. The insulinotropin concentration was initially 0.29 mg/mL, and 0.21 mg/mL after the final TWEEN® 40 addition and the temperature was held at 32° C. Two tests were conducted at two different concentrations of TWEEN® 40. […]

[2] = Electrophoretic mobility by capillary zone electrophoresis; assay type: physicochemical; conditions: no surfactant
Method: Since electrophoretic mobility (ie, the ability of a drug/agent to migrate in an electric field) is an important aspect of electrotransport drug delivery, the electrophoretic mobility of the drug/agent being delivered is predictive of suitability for transdermal electrotransport delivery. Electrophoretic mobility measurements were performed using a capillary zone electrophoresis instrument (model 2100 P/ACE instrument, Beckman Instruments, Inc., Palo Alto, Calif.). At acid pH values DB-WAX, DB-1, DB-17 (J&W Scientific, Folsom, Calif.) capillary columns were used either with 50 or 100 micron internal diameter column and CElect H75 (Supelco, Bellefonte, Pa.) capillary column with a 75 micron internal diameter. At alkaline pH values uncoated silica capillaries of length 57 cm with an internal diameter of 75 microns were used with an applied voltage of 20 kV. If any electroosmotic flow was present, it was detected using a neutral marker such as 0.01% benzyl alcohol (SIGMA, St. Louis, Mo.) or 1/500 mesityl oxide (Applied Biosystems, Foster City, Calif.). The optimum voltage was determined by doing an Ohm's Law test on each buffer and capillary system. The temperature of the capillary columns was set at 32° C. and a two second pressure injection was done. A UV detector was used to monitor peptide and markers at either 214 or 280 nm.
Voltage injection had to be used for the 27 cm length column. The voltage applied varied depending on the capillary length.
The following equation was used to determine electrophoretic mobility μ. [formula]
If the electroosmotic flow is detected, the following equation can be used.
μpeptide =μtotal -μneutral marker
as §1, §2
The measurement procedures described earlier were conducted in this example on an aqueous solution containing insulinotropin as the agent and dodecyl trimethyl ammonium chloride (DTAC) as the ionic surfactant with the following modifications. […]
The same measurement procedures were conducted using an aqueous solution of salmon calcitonin as the agent and the zwitterionic dodecyl sulfobetaine as the surfactant with the following modifications. The temperature was initially 32° C., the surfactant concentration was varied up to 30 mM, and the calcitonin concentration was 0.06 to 0.08 mM. Tables 7, 8, and 9 below provide the results obtained in terms of polypeptide ellipticity expressed as a function of zwitterionic surfactant concentration at pH 3.5 in 12 mM sodium chloroacetate (Table 7), 5.0 in 4 mM piperazine HCI (Table 8), and 6.5 in 15 mM sodium cacodylate (Table 9), respectively. Table 8, in addition, provides the results obtained on electrophoretic mobility and HIC retention time in a phenyl superose column at pH 5.0.

[3] = Hydrophobicity by hydrophobic interaction chromatography (HIC), phenyl Superose column (retention time, ta/tm); assay type: physicochemical; conditions: for HIC Retention Time (Phenyl Superose Col.): no surfactant
Method: The hydrophobicity of an agent (eg, an agent such as a polypeptide or protein in solution, as well as the relative increase or decrease thereof) is determined by passing the agent-containing solution through a chromatography column filled with a particular "hydrophobic interaction" bead material and measuring either (1) the time required for the agent to elute (ie, pass through) the column or (2) the volume of liquid (ie, the same liquid used in the agent-containing sample, but with the agent removed) required to be pumped through the column in order to elute the agent. For the purposes of the present invention, the hydrophobicity of an agent is defined in terms relative to the marker compound, N-acetyl tryptophanamide (sold by Sigma Chemical, St. Louis, Mo.), which has a somewhat moderate hydrophobicity. Hydrophobicity, as that term is used herein, is measured using a 5 mm diameter glass column having a length of 5 cm (ie, column volume of 1.0 mL) and packed with cross-linked agar beads having an average particle size of 13.5 μm. Examples of suitable hydrophobic bead materials include cross-linked agar gel beads (Superose 12) having hydrophobic ligands attached to the agar via chemically stable ether linkages ((Superose 12)--O--CH2 --CHOH--CH2 --O--R) such as alkyl-Superose wherein R is --CH2 --C(CH3)3 and phenyl-Superose wherein R is phenyl, both of which are sold in pre-packaged column form by Pharmacia Biotech, Inc. of Piscataway, N.J. Immediately downstream from the column is placed a flow cell which permits continuous UV absorbance measurements of the solution flowing out of the column. Suitable flow cells and UV absorbance detectors are sold by Perkin-Elmer Corp., Applied Biosystems, Foster City, Calif. Hydrophobicity measurements are conducted at 32° C. with the same buffer that is used in the electrotransport system which is used to deliver the agent (eg, transdermally) to the patient. The buffer strength used in the hydrophobicity measurements is 10 mM ionic strength. The term "certain hydrophobicity" as used herein, means that the time required for the agent to elute from the column, relative to the time required for N-acetyl tryptophanamide to elute, is as follows:
ta /tm >0.7, and preferably ta /tm >3
ta is the time at which the peak UV absorbance value is recorded for the beneficial agent in the flow cell, less the time required to initially fill the column with the agent-containing solution (ie, dead volume retention time); and
tm is the time at which the peak UV absorbance value is recorded for the N-acetyl tryptophanamide marker in the flow cell, less the time required to initially fill the column with the marker-containing solution (ie, dead volume retention time).
The above described measurement of agent hydrophobicity is substantially independent of column size and flow rate through the column.
One method of measuring the hydrophobicity of an agent such as a polypeptide or protein is by hydrophobic interaction chromatography (HIC). The principles and conditions associated with HIC are fully described in Protein Purification: Principles, High Resolution Methods, and Applications, Janson and Ryden, Eds., pp. 207-226 (1989), the pertinent portions of which are incorporated herein by reference. This method requires passing a composition through a hydrophobic interaction column and measuring the volume of solvent required for its complete elution. The hydrophobic sites on the agent are generally attracted to hydrophobic groups, such as aryl groups, affixed to beads placed within the column. A preferred HIC column material is phenyl-superose (Pharmacia, Sweden), a cross-linked polysaccharide which has been covalently modified to have pendant hydrophobic aryl groups. These pendant groups are similar to the hydrophobic or lipophilic species in the skin layers. Thus, this hydrophobic interaction column approximates, and is a good in vitro model for, an animal's skin layer as a barrier to transport of a polypeptide or protein. […]

[4] = pH 6.5
Method: A. Preparation of Human Skin Samples
Human cadaver skin was prepared by first removing about 1 mm thick skin samples in the form of strips. The skin strips were placed in polyethylene bags, sealed and placed in a refrigerator at about 4° C. for temporary storage. Prior to use in the electrotransport cell, the skin strips were placed in one-liter beakers containing water at 60° C. for about 90 seconds with gentle stirring. Then, the skin strips were removed and placed onto the absorbent side of a piece of BENCHKOTE™ material with the dermis side down. Using flat tipped tweezers to retain the dermis, the epidermis was removed from each strip with a round-tip spatula. Each epidermis, stratum corneum side up, was transferred to a PYREX™ glass tray filled with water. Each floating epidermis was stretched essentially flat. After removal from the water 2.22 cm (7/8 in) diameter disks of each epidermis were punched out of areas having negligible surface damage. The discs were stored at 4° C. in a sealed container with water droplets to maintain their moisture.
B. Set-up of Electrotransport Cell and Composition […]
The solution concentration of the polypeptide in the donor compartment 44 was, unless otherwise specified, 1 mM. […] The polypeptide flux was determined by periodic sampling of the solution in the receptor compartment 46. […]

CCCCCCCCCCCC[N+](C)(C)C.[Cl-] [DTAC, dodecyl trimethyl ammonium chloride, reference compound]
surfactant concentration at which an ellipticity of -9000 occurs [1]: about 3.0 mM

Cytochrome C: protein, molecular weight 12,400 g/mol
Electrophoretic Mobility [2]: 2.5 × 10^-4 cm^2 /V-s
HIC Retention Time (Phenyl Superose Col.) [3]: 2.0 min

Lysozyme: protein, molecular weight 14,315 g/mol
Electrophoretic Mobility [2]: 2.4 × 10^-4 cm^2 /V-s
HIC Retention Time (Phenyl Superose Col.) [3]: 24.0 min

D-Glu-D-Tyr-D-Leu-D-Lys-D-Ata-D-Leu-D-Leu-D-Ser-D-Lys-D-Leu-NH2 [Model Decapeptide, reference compound]
ta /tm ([3]; 10 mM HIS buffer, pH 7.0): 0.6
ta /tm ([3]; HIS buffer, pH 7.2): 0.5
ta /tm ([3]; pH 6.5 (10 mM histidine), no enhancer): 0.8
ta /tm ([3]; pH 6.5 (10 mM histidine), no enhancer, listed as decapeptide): about 0.8
ta /tm ([3]; pH 6.5, with 3 mM Tween 20): 0.9
in vitro Skin Flux [4]: l.3 μg/cm^2 -hr

B1: Ribonuclease: protein, molecular weight 13,686 g/mol (protein, UniProt P61823 27-150, looked up)
Ribonuclease pancreatic: KETAAAKFERQHMDSSTSAASSSNYCNQMMKSRNLTKDRCKPVNTFVHESLADVQAVCSQKNVACKNGQTNCYQSYSTMSITDCRETGSSKYPNCAYKTTQANKHIIVACEGNPYVPVHFDASV
Electrophoretic Mobility [2]: 1.9 × 10^-4 cm^2 /V-s
HIC Retention Time (Phenyl Superose Col.) [3]: 12.1 min
